# Laboratory results reported in patent publication US20090304692A1, “TRIAZINE COMPOUNDS AS PI3 KINASE AND MTOR INHIBITORS” (Wyeth, priority 2008, published 2009).
# Read-outs that look alike come from different tables or passages of the source.
# What was measured:
# [1] = target: Human mTOR (FLAG-TOR) (Homo sapiens, UniProt P42345); assay: mTOR kinase assay (DELFIA format, purified enzyme); assay type: biochemical; conditions: read-out: IC50 mTOR
# [2] = target: PI3K-γ (Homo sapiens, UniProt P48736); assay: PI3K-gamma fluorescence polarization assay
# [3] = target: PI3K-α (Homo sapiens, UniProt P42336); assay: PI3K-alpha fluorescence polarization assay; conditions: read-out: IC50 PI3Kα
# [4] = tested on: human prostate LNCap tumor cell line; assay: In vitro cell culture growth assay (MTS), LNCap; conditions: read-out: IC50 LNCap
# [5] = MTS cell growth assay, three days after drug treatment
# Human mTOR (FLAG-TOR), sequence (P42345 1360-2549 limits assumed): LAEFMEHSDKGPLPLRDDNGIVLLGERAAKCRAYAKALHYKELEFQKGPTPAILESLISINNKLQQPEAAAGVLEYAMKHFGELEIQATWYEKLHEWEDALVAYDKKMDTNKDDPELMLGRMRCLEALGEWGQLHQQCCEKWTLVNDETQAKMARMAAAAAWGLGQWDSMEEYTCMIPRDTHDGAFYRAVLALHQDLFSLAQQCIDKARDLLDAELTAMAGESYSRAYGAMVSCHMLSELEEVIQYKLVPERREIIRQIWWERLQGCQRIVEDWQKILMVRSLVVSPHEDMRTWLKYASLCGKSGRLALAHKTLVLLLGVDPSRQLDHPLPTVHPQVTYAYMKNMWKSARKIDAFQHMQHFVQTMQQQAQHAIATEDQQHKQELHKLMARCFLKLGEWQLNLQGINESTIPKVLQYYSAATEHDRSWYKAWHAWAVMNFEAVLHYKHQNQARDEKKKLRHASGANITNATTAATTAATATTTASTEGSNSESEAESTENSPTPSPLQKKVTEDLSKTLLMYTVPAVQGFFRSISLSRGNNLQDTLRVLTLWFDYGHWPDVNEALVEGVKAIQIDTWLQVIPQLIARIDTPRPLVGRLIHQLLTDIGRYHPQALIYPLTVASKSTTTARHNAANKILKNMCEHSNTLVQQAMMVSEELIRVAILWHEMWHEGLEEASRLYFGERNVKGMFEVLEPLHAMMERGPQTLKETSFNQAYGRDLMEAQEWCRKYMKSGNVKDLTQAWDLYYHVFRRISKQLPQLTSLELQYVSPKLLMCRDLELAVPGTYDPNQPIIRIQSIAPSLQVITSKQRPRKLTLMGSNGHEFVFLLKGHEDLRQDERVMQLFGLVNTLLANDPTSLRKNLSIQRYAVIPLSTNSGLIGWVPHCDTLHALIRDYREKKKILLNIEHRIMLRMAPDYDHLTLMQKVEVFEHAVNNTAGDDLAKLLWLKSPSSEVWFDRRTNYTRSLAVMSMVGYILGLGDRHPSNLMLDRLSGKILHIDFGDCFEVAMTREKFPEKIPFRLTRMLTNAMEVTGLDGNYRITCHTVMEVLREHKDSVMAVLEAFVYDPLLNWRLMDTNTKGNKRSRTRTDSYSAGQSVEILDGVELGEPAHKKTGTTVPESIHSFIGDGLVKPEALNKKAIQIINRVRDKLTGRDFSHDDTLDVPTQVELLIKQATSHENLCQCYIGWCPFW
# PI3K-α, sequence (P42336 whole entry, species assumed): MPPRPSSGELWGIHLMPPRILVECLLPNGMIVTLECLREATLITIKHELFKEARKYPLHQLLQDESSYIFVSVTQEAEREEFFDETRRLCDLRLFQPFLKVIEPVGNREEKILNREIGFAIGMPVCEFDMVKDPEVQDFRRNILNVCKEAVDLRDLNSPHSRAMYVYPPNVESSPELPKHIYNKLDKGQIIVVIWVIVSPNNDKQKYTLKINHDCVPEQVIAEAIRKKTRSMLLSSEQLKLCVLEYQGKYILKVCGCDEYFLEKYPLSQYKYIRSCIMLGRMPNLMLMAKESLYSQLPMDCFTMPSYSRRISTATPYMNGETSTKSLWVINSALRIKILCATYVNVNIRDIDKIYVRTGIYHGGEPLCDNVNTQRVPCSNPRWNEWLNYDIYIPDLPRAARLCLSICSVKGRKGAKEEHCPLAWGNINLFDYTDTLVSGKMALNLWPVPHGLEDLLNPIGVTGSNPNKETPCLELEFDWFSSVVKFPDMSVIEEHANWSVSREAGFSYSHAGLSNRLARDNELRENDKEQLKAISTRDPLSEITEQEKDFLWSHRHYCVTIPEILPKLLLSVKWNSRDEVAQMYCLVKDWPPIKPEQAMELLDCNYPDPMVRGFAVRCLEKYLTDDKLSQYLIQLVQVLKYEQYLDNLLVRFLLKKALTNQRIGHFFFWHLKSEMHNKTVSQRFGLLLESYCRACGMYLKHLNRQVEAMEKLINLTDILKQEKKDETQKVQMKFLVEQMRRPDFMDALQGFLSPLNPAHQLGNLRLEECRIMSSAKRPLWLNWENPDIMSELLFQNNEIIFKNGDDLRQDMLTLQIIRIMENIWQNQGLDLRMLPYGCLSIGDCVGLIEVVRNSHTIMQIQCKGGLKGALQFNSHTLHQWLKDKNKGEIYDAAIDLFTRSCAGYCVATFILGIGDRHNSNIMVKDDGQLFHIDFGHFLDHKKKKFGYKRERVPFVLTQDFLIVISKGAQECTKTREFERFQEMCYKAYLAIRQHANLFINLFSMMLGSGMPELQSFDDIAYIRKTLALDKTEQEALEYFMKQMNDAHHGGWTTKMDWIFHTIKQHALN
# PI3K-α, sequence (P27986 whole entry partner, species assumed): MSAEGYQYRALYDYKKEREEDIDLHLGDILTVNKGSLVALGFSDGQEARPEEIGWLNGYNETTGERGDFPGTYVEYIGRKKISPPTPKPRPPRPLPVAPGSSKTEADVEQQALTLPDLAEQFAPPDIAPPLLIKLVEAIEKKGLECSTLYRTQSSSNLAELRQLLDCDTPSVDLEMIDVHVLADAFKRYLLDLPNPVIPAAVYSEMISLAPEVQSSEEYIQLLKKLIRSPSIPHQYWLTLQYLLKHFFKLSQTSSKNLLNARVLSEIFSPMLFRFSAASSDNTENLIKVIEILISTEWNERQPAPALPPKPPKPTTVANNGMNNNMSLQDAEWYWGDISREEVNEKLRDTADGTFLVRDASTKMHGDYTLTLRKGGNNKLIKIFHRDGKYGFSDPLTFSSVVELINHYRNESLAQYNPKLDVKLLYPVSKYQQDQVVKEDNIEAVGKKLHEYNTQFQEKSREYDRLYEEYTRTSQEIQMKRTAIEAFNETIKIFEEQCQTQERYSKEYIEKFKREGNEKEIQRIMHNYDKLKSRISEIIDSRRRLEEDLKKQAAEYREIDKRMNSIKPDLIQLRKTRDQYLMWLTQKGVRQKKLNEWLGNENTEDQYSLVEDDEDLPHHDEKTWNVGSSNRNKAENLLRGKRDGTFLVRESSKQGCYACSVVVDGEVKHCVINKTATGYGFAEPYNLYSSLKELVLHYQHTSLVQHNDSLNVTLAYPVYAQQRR
# PI3K-γ, sequence (P48736 whole entry, species assumed): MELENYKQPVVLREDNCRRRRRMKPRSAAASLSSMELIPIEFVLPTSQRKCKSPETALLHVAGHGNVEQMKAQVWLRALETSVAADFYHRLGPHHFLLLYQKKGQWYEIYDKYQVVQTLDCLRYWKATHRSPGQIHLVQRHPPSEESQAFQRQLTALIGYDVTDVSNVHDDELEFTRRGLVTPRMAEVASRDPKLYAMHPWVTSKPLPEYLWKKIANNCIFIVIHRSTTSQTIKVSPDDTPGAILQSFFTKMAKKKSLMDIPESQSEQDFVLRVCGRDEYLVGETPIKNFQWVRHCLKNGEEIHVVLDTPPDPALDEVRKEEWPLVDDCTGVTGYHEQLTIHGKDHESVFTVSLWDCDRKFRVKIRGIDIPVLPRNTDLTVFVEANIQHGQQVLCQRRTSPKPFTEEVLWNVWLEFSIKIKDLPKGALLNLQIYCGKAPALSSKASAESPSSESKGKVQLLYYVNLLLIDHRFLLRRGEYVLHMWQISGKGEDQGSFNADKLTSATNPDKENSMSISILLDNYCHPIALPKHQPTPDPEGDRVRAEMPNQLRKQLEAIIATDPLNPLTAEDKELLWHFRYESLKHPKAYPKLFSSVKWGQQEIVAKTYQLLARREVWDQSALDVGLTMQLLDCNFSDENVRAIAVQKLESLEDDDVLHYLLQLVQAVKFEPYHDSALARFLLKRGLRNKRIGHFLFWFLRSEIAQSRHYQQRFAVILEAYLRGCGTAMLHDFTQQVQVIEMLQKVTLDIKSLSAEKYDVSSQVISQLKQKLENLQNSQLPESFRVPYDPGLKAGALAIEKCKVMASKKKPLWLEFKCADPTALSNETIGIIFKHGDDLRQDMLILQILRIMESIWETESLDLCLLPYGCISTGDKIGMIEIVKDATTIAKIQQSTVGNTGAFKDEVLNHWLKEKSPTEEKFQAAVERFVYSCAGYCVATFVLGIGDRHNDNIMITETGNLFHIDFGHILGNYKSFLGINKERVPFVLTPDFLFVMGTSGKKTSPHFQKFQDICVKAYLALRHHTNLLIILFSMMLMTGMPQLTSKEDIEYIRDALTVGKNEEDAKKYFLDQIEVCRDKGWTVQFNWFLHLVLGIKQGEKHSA
IC50 [1] [µM],IC50 ([2]; read-out: IC50 PI3Kγ) [µM],IC50 [3] [µM],IC50 [2] [µM],"IC50 ([4]; Homo sapiens, LNCaP, 72 h) [µM]",Molecule,"IC50 [4, 5] [µM]"
0.00415,–,1.23,> 10,0.35,"O=C(Nc1ccc(-c2nc(N3CC4CCC(C3)O4)nc(N3CC4CCC(C3)O4)n2)cc1)OCCO [Example 27, 2-hydroxyethyl[4-(4,6-di-8-oxa-3-azabicyclo[3.2.1]oct-3-yl-1,3,5-triazin-2-yl)phenyl]carbamate]",–
0.00095,5.55,0.054,–,0.0024,"CN1CCN(c2ccc(NC(=O)Nc3ccc(-c4nc(N5CC6CCC(C5)O6)nc(N5CC6CCC(C5)O6)n4)cc3)cc2)CC1 [Example 28, 1-[4-(4,6-di-8-oxa-3-azabicyclo[3.2.1]oct-3-yl-1,3,5-triazin-2-yl)phenyl]-3-[4-(4-methylpiperazin-1-yl)phenyl]urea]",–
0.0028,–,2.69,> 10,0.18,"CCNC(=O)Nc1ccc(-c2nc(N3CC4CCC(C3)O4)nc(N3CC4CCC(C3)O4)n2)cc1 [Example 29, 1-[4-(4,6-di-8-oxa-3-azabicyclo[3.2.1]oct-3-yl-1,3,5-triazin-2-yl)phenyl]-3-ethylurea]",–
0.00265,–,2.12,> 10,0.09,"O=C(Nc1ccc(-c2nc(N3CC4CCC(C3)O4)nc(N3CC4CCC(C3)O4)n2)cc1)NC1CC1 [Example 30, 1-cyclopropyl-3-[4-(4,6-di-8-oxa-3-azabicyclo[3.2.1]oct-3-yl-1,3,5-triazin-2-yl)phenyl]urea]",–
0.00049,3.52,0.142,–,0.045,"O=C(Nc1ccncc1)Nc1ccc(-c2nc(N3CC4CCC(C3)O4)nc(N3CC4CCC(C3)O4)n2)cc1 [Example 31, 1-[4-(4,6-di-8-oxa-3-azabicyclo[3.2.1]oct-3-yl-1,3,5-triazin-2-yl)phenyl]-3-pyridin-4-ylurea]",–
0.00029,2.54,0.045,–,0.0007,"O=C(Nc1ccc(CO)cc1)Nc1ccc(-c2nc(N3CC4CCC(C3)O4)nc(N3CC4CCC(C3)O4)n2)cc1 [Example 32, 1-[4-(4,6-di-8-oxa-3-azabicyclo[3.2.1]oct-3-yl-1,3,5-triazin-2-yl)phenyl]-3-[4-(hydroxymethyl)phenyl]urea]",–
0.00755,1.84,0.393,–,0.37,"CC(C)(C)OC(=O)N1CCN(c2nc(-c3ccc(NC(=O)Nc4ccncc4)cc3)nc(N3CC4CCC(C3)O4)n2)CC1 [Example 106, Tert-butyl 4-(4-(8-oxa-3-azabicyclo[3.2.1]octan-3-yl)-6-(4-(3-pyridin-4-ylureido)phenyl)-1,3,5-triazin-2-yl)piperazine-1-carboxylate]",–
0.019,1.49,0.115,–,1,"O=C(Nc1ccncc1)Nc1ccc(-c2nc(N3CCNCC3)nc(N3CC4CCC(C3)O4)n2)cc1 [Example 107, 1-(4-(4-(8-oxa-3-azabicyclo[3.2.1]octan-3-yl)-6-(piperazin-1-yl)-1,3,5-triazin-2-yl)phenyl)-3-(pyridin-4-yl)urea]",–
0.019,4.15,0.586,–,0.32,"CN1CCN(c2nc(-c3ccc(NC(=O)Nc4ccncc4)cc3)nc(N3CC4CCC(C3)O4)n2)CC1 [Example 108, 1-{4-[4-(4-methylpiperazin-1-yl)-6-(8-oxa-3-azabicyclo[3.2.1]oct-3-yl)-1,3,5-triazin-2-yl]phenyl}-3-pyridin-4-ylurea]",–
0.0735,2.96,1.46,–,1.9,"O=C(Nc1ccncc1)Nc1ccc(-c2nc(N3CCN(Cc4ccccc4)CC3)nc(N3CC4CCC(C3)O4)n2)cc1 [Example 109, 1-{4-[4-(4-benzylpiperazin-1-yl)-6-(8-oxa-3-azabicyclo[3.2.1]oct-3-yl)-1,3,5-triazin-2-yl]phenyl}-3-pyridin-4-ylurea]",–
0.029,3.51,0.884,–,0.22,"O=C(Nc1ccncc1)Nc1ccc(-c2nc(N3CCN(Cc4cccnc4)CC3)nc(N3CC4CCC(C3)O4)n2)cc1 [Example 110, 1-(4-{4-(8-oxa-3-azabicyclo[3.2.1]oct-3-yl)-6-[4-(pyridin-3-ylmethyl)piperazin-1-yl]-1,3,5-triazin-2-yl}phenyl)-3-pyridin-4-ylurea]",–
0.0023,1.83,0.116,–,0.058,"CC(=O)N1CCN(c2nc(-c3ccc(NC(=O)Nc4ccncc4)cc3)nc(N3CC4CCC(C3)O4)n2)CC1 [Example 111, 1-{4-[4-(4-acetylpiperazin-1-yl)-6-(8-oxa-3-azabicyclo[3.2.1]oct-3-yl)-1,3,5-triazin-2-yl]phenyl}-3-pyridin-4-ylurea]",–
0.012,0.777,0.488,–,0.3,"CN(C)CC(=O)N1CCN(c2nc(-c3ccc(NC(=O)Nc4ccncc4)cc3)nc(N3CC4CCC(C3)O4)n2)CC1 [Example 112, 1-(4-{4-[4-(N,N-dimethylglycyl)piperazin-1-yl]-6-(8-oxa-3-azabicyclo[3.2.1]oct-3-yl)-1,3,5-triazin-2-yl}phenyl)-3-pyridin-4-ylurea]",–
0.00315,1.18,0.106,–,0.038,"COC(=O)N1CCN(c2nc(-c3ccc(NC(=O)Nc4ccncc4)cc3)nc(N3CC4CCC(C3)O4)n2)CC1 [Example 114, Methyl 4-[4-(8-oxa-3-azabicyclo[3.2.1]oct-3-yl)-6-{4-[(pyridin-4-ylcarbamoyl)amino]phenyl}-1,3,5-triazin-2-yl]piperazine-1-carboxylate]",–
0.0032,2,0.109,–,0.2,"O=C1CCN(c2nc(-c3ccc(NC(=O)Nc4ccncc4)cc3)nc(N3CC4CCC(C3)O4)n2)CC1 [Example 115, 1-(4-(4-(8-oxa-3-azabicyclo[3.2.1]octan-3-yl)-6-(4-oxopiperidin-1-yl)-1,3,5-triazin-2-yl)phenyl)-3-(pyridin-4-yl)urea]",–

Molecule,IC50 [1] [µM],IC50 ([2]; read-out: IC50 PI3Kγ) [µM],IC50 [3] [µM],IC50 [2] [µM],"IC50 ([4]; Homo sapiens, LNCaP, 72 h) [µM]","IC50 [4, 5] [µM]"
"1-(4-(4-(3-oxa-8-azabicyclo[3.2.1]octan-8-yl)-6-(piperidin-4-ylamino)-1,3,5-triazin-2-yl)phenyl)-3-ethylurea [Example 361]",0.0013,> 10,6.03,–,–,0.0022
"1-(4-(4-(3-oxa-8-azabicyclo[3.2.1]octan-8-yl)-6-(piperidin-4-ylamino)-1,3,5-triazin-2-yl)phenyl)-3-ethylurea [Example 362]",0.00074,> 10,3.09,–,–,0.001
"1-(4-(4-(3-oxa-8-azabicyclo[3.2.1]octan-8-yl)-6-(piperidin-4-ylamino)-1,3,5-triazin-2-yl)phenyl)-3-ethylurea [Example 364]",0.0035,8.04,1.47,–,–,0.07
"1-{4-[4-(4-morpholin-4-ylpiperidin-1-yl)-6-(8-oxa-3-azabicyclo[3.2.1]oct-3-yl)-1,3,5-triazin-2-yl]phenyl}-3-pyridin-4-ylurea [Example 121]",0.0435,4,1.85,–,–,1
